For orientation: IC50 means the concentration that gives 50% inhibition.

In ChEMBL document CHEMBL3600350, “Peptide HIV fusion inhibitors: modifications and conjugations” (Medchemcomm, 2014) one finds IC50 data, which are given here for nine molecules.

Numbered stars: 1 amine (or outer) side, 2 acyl side, 3 side chain; on linkers, the order of the positions; unused ones are H or OH. Square brackets hold non-standard residues; d marks the D form. Peptide text beside a SMILES is read from it. X1 = CCCCCCCCCCCCCCCC(=O)NC(=O)CC[C@H](N[*:1])C(=O)[*:2] Some results are limits rather than exact numbers.

Assay [1] relates to Human immunodeficiency virus 1. Kind of assay: Antiviral activity against HIV-1 HXB2 assessed as inhibition of viral infection in human TZM-bl cells after 18 hrs by steady-glo luciferase reporter gene assay. It is filed as functional, organism-based. Particulars: Human immunodeficiency virus 1, HXB2, TZM-bl. On the technique in general: Reporter assays use an easily measured gene product as a stand-in for the process of interest.

Assay [2] deals with Human immunodeficiency virus 1. Kind of assay: Antiviral activity against HIV-1 HXB2 assessed as inhibition of viral fusion with human TZM-bl cells after 6 hrs by luciferase reporter gene assay. Particulars: Human immunodeficiency virus 1, HXB2, TZM-bl. The assay is classed as functional, organism-based.
Assay [3] can be described thus: Inhibition of HIV-1 HXBc2 env-mediated cell fusion between viral infected human Jurkat cells and non infected human Jurkat E6-1 cells after 6 hrs by DiI/DiD probe-based flow cytometric analysis. Conditions: Human immunodeficiency virus 1, HXBc2, Jurkat. In general terms: A flow cytometer gives signals particle by particle.

Regarding `CC[C@H](C)[C@H](NC(=O)CNC(=O)[C@H](Cc1c[nH]c2ccccc12)NC(=O)[C@@H](NC(=O)[C@@H](NC(=O)[C@H](CC(C)C)NC(=O)[C@H](CCC(N)=O)NC(=O)[C@H](CC(C)C)NC(=O)[C@@H](N)CC(C)C)[C@H](C)O)C(C)C)C(=O)N[C@@H](CCCCN)C(=O)N[C@@H](CCC(N)=O)C(=O)N[C@@H](CC(C)C)C(=O)N[C@@H](CCC(N)=O)C(=O)N[C@@H](C)C(=O)N[C@@H](CCCNC(=N)N)C(=O)N[C@H](C(=O)N[C@@H](CC(C)C)C(=O)O)[C@@H](C)CC`, the IC50 in assay [1] is more than 4000 nM.
`CCCCCCCCCCCCCCCC(=O)[C@H](CCCCN)NC(=O)[C@H](CCC(=O)O)NC(=O)[C@H](CC(C)C)NC(=O)[C@H](CC(C)C)NC(=O)[C@H](CCC(=O)O)NC(=O)[C@H](CCC(N)=O)NC(=O)[C@H](CCC(=O)O)NC(=O)[C@H](CC(N)=O)NC(=O)[C@H](CCCCN)NC(=O)[C@H](CCC(=O)O)NC(=O)[C@H](CCC(N)=O)NC(=O)[C@H](CCC(N)=O)NC(=O)[C@H](CC(N)=O)NC(=O)[C@H](CCC(N)=O)NC(=O)[C@H](CO)NC(=O)[C@H](CCC(=O)O)NC(=O)[C@H](CCC(=O)O)NC(=O)[C@@H](NC(=O)[C@H](CC(C)C)NC(=O)[C@H](CO)NC(=O)[C@H](Cc1c[nH]cn1)NC(=O)[C@@H](NC(=O)[C@H](CC(C)C)NC(=O)[C@H](CO)NC(=O)[C@@H](NC(=O)[C@@H](N)Cc1ccc(O)cc1)[C@H](C)O)[C@@H](C)CC)[C@@H](C)CC`: the IC50 in assay [2] was 1.3 nM.
As for `CCCCCCCCCCCCCCCC(O)C(CO)NC(=O)NC(=O)[C@H](CCCCN)NC(=O)[C@H](CC(N)=O)NC(=O)[C@H](CCCCN)NC(=O)[C@H](CCC(=O)O)NC(=O)[C@H](CCC(N)=O)NC(=O)[C@H](CCC(N)=O)NC(=O)[C@H](CC(N)=O)NC(=O)[C@H](CCC(N)=O)NC(=O)[C@H](CO)NC(=O)[C@H](CCC(=O)O)NC(=O)[C@H](CCC(=O)O)NC(=O)[C@@H](NC(=O)[C@H](CC(C)C)NC(=O)[C@H](CO)NC(=O)[C@H](Cc1c[nH]cn1)NC(=O)[C@@H](NC(=O)[C@H](CC(C)C)NC(=O)[C@H](CO)NC(=O)[C@@H](NC(=O)[C@@H](N)Cc1ccc(O)cc1)[C@H](C)O)[C@@H](C)CC)[C@@H](C)CC` (some centres undefined), the IC50 in assay [1] came out at 350 nM.
On to `CCCCCCCCCCCCCCCC(O)C(CO)NC(=O)N[C@@H](CC(C)C)C(=O)N[C@@H](CC(C)C)C(=O)N[C@@H](CCC(N)=O)C(=O)N[C@@H](CC(C)C)C(=O)N[C@H](C(=O)N[C@H](C(=O)N[C@@H](Cc1c[nH]c2ccccc12)C(=O)NCC(=O)N[C@H](C(=O)N[C@@H](CCCCN)C(=O)N[C@@H](CCC(N)=O)C(=O)N[C@@H](CC(C)C)C(=O)N[C@@H](CCC(N)=O)C(=O)N[C@@H](C)C(=O)N[C@@H](CCCNC(=N)N)C(=O)N[C@H](C(=O)N[C@@H](CC(C)C)C(=O)O)[C@@H](C)CC)[C@@H](C)CC)C(C)C)[C@H](C)O` (some centres undefined), for which, in assay [1], the IC50 stood at 121 nM.
The same measure, in the same setting: the value for `CCCCCCCCCCCCCCCC(O)C(CO)NCNC(=O)[C@@H](CCCCN)NC(=O)[C@H](CC(C)C)NC(=O)[C@@H](NC(=O)[C@H](CCCNC(=N)N)NC(=O)[C@H](C)NC(=O)[C@H](CCC(N)=O)NC(=O)[C@H](CC(C)C)NC(=O)[C@H](CCC(N)=O)NC(=O)[C@H](CCCCN)NC(=O)[C@@H](NC(=O)CNC(=O)[C@H](Cc1c[nH]c2ccccc12)NC(=O)[C@@H](NC(=O)[C@@H](NC(=O)[C@H](CC(C)C)NC(=O)[C@H](CCC(N)=O)NC(=O)[C@H](CC(C)C)NC(=O)[C@@H](N)CC(C)C)[C@H](C)O)C(C)C)[C@@H](C)CC)[C@@H](C)CC` (some centres undefined) was 287 nM.
For the molecule `CC[C@H](C)[C@H](NC(=O)[C@H](CC(C)C)NC(=O)[C@H](CO)NC(=O)[C@H](Cc1c[nH]cn1)NC(=O)[C@@H](NC(=O)[C@H](CC(C)C)NC(=O)[C@H](CO)NC(=O)[C@@H](NC(=O)[C@@H](N)Cc1ccc(O)cc1)[C@H](C)O)[C@@H](C)CC)C(=O)N[C@@H](CCC(=O)O)C(=O)N[C@@H](CCC(=O)O)C(=O)N[C@@H](CO)C(=O)N[C@@H](CCC(N)=O)C(=O)N[C@@H](CC(N)=O)C(=O)N[C@@H](CCC(N)=O)C(=O)N[C@@H](CCC(N)=O)C(=O)N[C@@H](CCC(=O)O)C(=O)N[C@@H](CCCCN)C(=O)N[C@@H](CC(N)=O)C(=O)N[C@@H](CCCCN)C(=O)O`, the IC50 in assay [1] is more than 4000 nM.
Molecule `CCCCCCCCCCCCCCCC(=O)NC(=O)CC[C@H](N)C(=O)N[C@@H](CC(C)C)C(=O)N[C@@H](CC(C)C)C(=O)N[C@@H](CO)C(=O)NCC(=O)N[C@H](C(=O)N[C@H](C(=O)N[C@@H](CCC(N)=O)C(=O)N[C@@H](CCC(N)=O)C(=O)N[C@@H](CCC(N)=O)C(=O)N[C@@H](CC(N)=O)C(=O)N[C@@H](CC(N)=O)C(=O)N[C@@H](CC(C)C)C(=O)N[C@@H](CC(C)C)C(=O)N[C@@H](CCCNC(=N)N)C(=O)N[C@@H](C)C(=O)N[C@H](C(=O)N[C@@H](CCC(=O)O)C(=O)N[C@@H](C)C(=O)N[C@@H](CCC(N)=O)C(=O)N[C@@H](CCC(N)=O)C(=O)N[C@@H](Cc1c[nH]cn1)C(=O)N[C@@H](CC(C)C)C(=O)N[C@@H](CC(C)C)C(=O)N[C@@H](CCC(N)=O)C(=O)O)[C@@H](C)CC)C(C)C)[C@@H](C)CC` (H-[X1]LLSGIVQQQNNLLRAIEAQQHLLQ-OH) had a half-maximal inhibitory concentration (IC50) in assay [3] of 10 nM.
On the same count and under the same terms, the value for H-LLSGIVQQQNNLLRAIEAQQHLLQ-OH was 338 nM.
For H-YTSLIHSLIEESQNQQEKNEQELLE-OH, the IC50 in assay [2] is 2860 nM.
